# Reference: US20070197599A1, “HYDROXYLAMINES AND DERIVATIVES AS ANTI-ANGIOGENIC AGENTS” (priority 2006, published 2007)
# Where “and” joins values, the source holds several entries; their conditions need not be identical. Equal entries are not always repeated.
# What was measured:
# [1] = system: VEGF-induced angiogenesis in the CAM model; experiment: VEGF-induced angiogenesis in the CAM model (TPH); format: in vivo, chick
# Description: Neovascularization was examined by previously described methods (see references at the end of Example 5). Ten-day-old fertilized chicken eggs were incubated at 37° C. with 55% relative humidity. In the dark with the help of candling lamp and using a hypodermic needle a small hole was punctured in the shell covering the air sac. A second hole was punctured on the wider side of the egg above an avascular area of the embryonic membrane. An artificial air sac was created below the second hole by applying gentle vacuum to the first hole using a small rubber squeeze bulb. The vacuum caused the separation of chorioallantoic membrane (CAM) from the shell. An approximately 1.0 cm^2 widow was cut in the shell over the dropped CAM with the use of a mini drill. The underlying CAM was accessed through this small window.
# Filter disks were punched using a small puncher from filter paper #1 (Whatman International, United Kingdom). Filter disks were soaked in 3 mg/ml cortisone acetate solution (95% ethanol and water) and air-dried under sterile condition. For inducing angiogenesis, sterile filter disks were saturated with bFGF (1 μg/ml) or other pro-angiogenesis factors and control disks were saturated with PBS without Calcium and Magnesium.
# Using sterile forceps one filter/CAM was placed from the window. The window was sealed with Highland brand transparent tape. After 24 hr, 10-25 µl of test agent (inhibitor) was injected intravenously or added topically into the CAM membrane of bFGF or other pro-angiogenesis factors stimulated CAMs. • Control filter disks received PBS without Calcium and Magnesium. • After 48 hr, CAM tissue directly beneath filter disk was harvested and placed in a 35-mm Petri dish. Eight-Ten eggs/treatment group was used.
# A pro-angiogenic agent (see Examples, below) was added to induce new blood vessel branches on the CAM of 10-day old embryos. Sterile disks of #1 filter paper (Whatman International, United Kingdom) were pre-treated with 3 mg/ml cortisone acetate, and air dried under sterile conditions. The disks were then suspended in PBS (Phosphate Buffered Saline) and placed on growing CAMs. Filters treated with TPH (TEMPOL-H) or TEMPOL and/or H2O2 or TPH and/or bFGF or VEGF were placed on the first day of the 3-day incubation.
# Digital Images and Microscopic analysis of CAM sections: CAM sections from Petri dish were examined using SV6 stereomicroscope (Karl Zeiss) at 50× magnification. Digital images were captured using a 3-CCD color video camera system (Toshiba America, New York, N.Y.). These images were analyzed using Image-Pro Plus software (Media Cybernetics). The number of branch points in blood vessels within the circular region superimposed to the area of a filter disk was counted for each section. After incubation at 37° C. with 55% relative humidity for 3 days, the CAM tissue directly beneath each filter disk was resected from control and treated CAM samples. Tissues were washed three times with PBS. Sections were placed in a 35-mm Petri dish (Nalge Nunc; Rochester, N.Y.) and were examined under a SV6 stereomicroscope (Karl Zeiss; Thornwood, N.Y.) at 50× magnification. Digital images of CAM sections adjacent to filters were collected using a 3-CCD color video camera system (Toshiba America; New York, N.Y.) and analyzed with the Image-Pro Plus software (Media Cybernetics; Silver Spring, Md.). The number of vessel branch points contained in a circular region equal to the area of a filter disk was counted for each section. Percent inhibition data are expressed as the quotient of the experimental value minus the negative control value divided by the difference between the positive control value and the negative control value. One image was counted in each CAM preparation, and findings from eight CAM preparations were analyzed for each treatment condition. In addition, each experiment was performed three times. […]
# mouse V79 cells = settings: Mitchell et al., 2000; cited from earlier work
# [2] = Single-dose 10-minute intravenous infusion toxicokinetics in Sprague-Dawley rats; format: in vivo
# Description: Blood for toxicokinetic evaluations was collected at pre-determined time points during and after the infusion.
# All pharmacokinetic analyses were performed using Kinetica®, version 4.2 (Innaphase, Philadelphia, Pa.).
# Cmax is the observed maximum plasma concentration
# Tmax is the time Cmax is reached
# T1/2 is the elimination half-life
# The plasma concentrations were rounded to the nearest tenth of a ng/mL before the calculations. […] Nominal time points were used for all calculations.
# [3] = system: selenite induced cataract; settings: mice; cited from earlier work
# [4] = In vitro stability of Compound 1 in rat plasma; format: in vitro ADME; settings: formed from OT-551 (Compound 1, 1000 ng/mL)
# Description: The active metabolite of Compound 1 (Cyclopropanecarboxylic acid 1-hydroxy-2,2,6,6-tetramethyl-piperidin-4-yl ester) is TPH. The objective of this analysis was to determine the in vitro half-life of Compound 1 in rat, rabbit, dog, and human plasma under standardized incubation conditions.
# Compound 1 was incubated with pooled rat, rabbit, dog, and human plasma for various times under standardized incubation conditions. Pre-labeled tubes containing pooled plasma from rats, rabbits, dogs, and humans were pre-incubated in a shaking 37° C. water bath. A Compound 1 solution was added to the tubes at a final concentration of 1000 ng/mL. Time zero samples (n=5) were immediately removed and transferred into tubes containing a stabilizer solution (DTPA, acetylcysteine and ascorbic acid), the LC/MS/MS assay internal standard and methanol. […] The tubes were vortexed, placed on ice, followed by centrifugation. One hundred-μL aliquots of the supernatant were transferred into HPLC sample vials. Additional tubes (n=5 at each time point) were incubated for 5, 10, 20, 30, 60, 120, and 240 minutes at 37° C. and thereafter processed. The amount of Compound 1 and TPH in each incubated sample was quantified using validated LC/MS/MS assays.
# [5] = after Compound 1 10 mg/kg iv infusion
# [6] = after Compound 1 30 mg/kg iv infusion
# [7] = after Compound 1 100 mg/kg iv infusion
compound,measurement,setting,value
CC1(C)CC(O)CC(C)(C)N1O [TPH],inhibition of VEGF-induced angiogenesis,[1]; 100-800 μg (Table 3),dose-dependent inhibition
same,anti-angiogenesis efficacy against VEGF-induced angiogenesis as compared with bFGF,[1]; Tables 2 and 3,much greater
same,Mean % Inhibition ± SD,[1]; VEGF (2 μg/ml) + TPH 100 μg,37.6 ± 6.9 %
same,Mean Branch points ± SD,[1]; VEGF (2 μg/ml) + TPH 100 μg,154.8 ± 7.5
same,Mean % Inhibition ± SD,[1]; VEGF (2 μg/ml) + TPH 200 μg,42 ± 3.5 %
same,Mean Branch points ± SD,[1]; VEGF (2 μg/ml) + TPH 200 μg,150 ± 3.8
same,Mean % Inhibition ± SD,[1]; VEGF (2 μg/ml) + TPH 400 μg,53.3 ± 3.3 %
same,Mean Branch points ± SD,[1]; VEGF (2 μg/ml) + TPH 400 μg,137.8 ± 3.0
same,Mean % Inhibition ± SD,[1]; VEGF (2 μg/ml) + TPH 800 μg,70.7 ± 9.1 %
same,Mean Branch points ± SD,[1]; VEGF (2 μg/ml) + TPH 800 μg,118.8 ± 9.9
same,radioprotection of mouse V79 cells,mouse V79 cells,did not provide any radioprotection
same,plasma levels of TPH at 4 hr post infusion,[2]; after Compound 1 10 mg/kg dose,still quantifiable
same,AUC(0-4.167 hr) of TPH,[2]; [5],1694.8 ng·h/mL
same,Cmax of TPH,[2]; [5],2481.7 ng/mL
same,Tmax of TPH,[2]; [5],10 min
same,T½ of TPH (elimination half-life),[2]; [5],24 min
same,Plasma concentration of TPH,"[2]; after Compound 1 10 mg/kg iv infusion, 0.167 hr",2481.7 ± 325.8 ng/mL
same,Plasma concentration of TPH,"[2]; after Compound 1 10 mg/kg iv infusion, 1.167 hr",204.7 ± 85.6 ng/mL
same,Plasma concentration of TPH,"[2]; after Compound 1 10 mg/kg iv infusion, 2.167 hr",25.2 ± 24.0 ng/mL
same,Plasma concentration of TPH,"[2]; after Compound 1 10 mg/kg iv infusion, 4.167 hr",4.2 ± 10.3 ng/mL
same,AUC of TPH,"[2]; after Compound 1 10 mg/kg iv infusion, to time infinity",1697.5 ng·h/mL
same,Cmax of TPH,[2]; [6],8337.7 ng/mL
same,Tmax of TPH,[2]; [6],10 min
same,Plasma concentration of TPH,"[2]; after Compound 1 30 mg/kg iv infusion, 0.167 hr",8337.7 ± 2099.5 ng/mL
same,Plasma concentration of TPH,"[2]; after Compound 1 30 mg/kg iv infusion, 4.167 hr",53.8 ± 29.7 ng/mL
same,Cmax of TPH,[2]; [7],29020.8 ng/mL
same,Tmax of TPH,[2]; [7],10 min
same,Plasma concentration of TPH,"[2]; after Compound 1 100 mg/kg iv infusion, 0.167 hr",29020.8 ± 11713.7 ng/mL
same,Plasma concentration of TPH,"[2]; after Compound 1 100 mg/kg iv infusion, 4.167 hr",160.0 ± 97.5 ng/mL
same,Tmax of TPH,[2]; after Compound 1 200 mg/kg iv infusion,10 min
same,Plasma concentration of TPH,"[2]; after Compound 1 200 mg/kg iv infusion, 0.167 hr",60802.2 ± 8922.5 ng/mL
same,Plasma concentration of TPH,"[2]; after Compound 1 200 mg/kg iv infusion, 4.167 hr",524.5 ± 237.0 ng/mL
same,Cmax of TPH,"[2]; after Compound 1 200 mg/kg iv infusion, 200 mg/kg",60802.1 ng/mL and 60802.2 ng/mL
same,levels of TPH at four hours after terminating the infusion relative to concentrations immediately after terminating the infusions,"[2]; after Compound 1 30, 100 and 200 mg/kg",less than 1%
same,prevention of selenite induced cataract,[3],effective
same,Concentration of TPH in plasma,[4]; incubation 0 min,10.23 ± 1.59 ng/mL
same,Concentration of TPH in plasma,[4]; incubation 5 min,30.47 ± 1.65 ng/mL
same,Concentration of TPH in plasma,[4]; incubation 10 min,50.91 ± 2.11 ng/mL
same,Concentration of TPH in plasma,[4]; incubation 20 min,86.30 ± 3.30 ng/mL
same,Concentration of TPH in plasma,[4]; incubation 30 min,119.63 ± 7.08 ng/mL
same,Concentration of TPH in plasma,[4]; incubation 60 min,201.94 ± 4.19 ng/mL
same,Concentration of TPH in plasma,[4]; incubation 120 min,304.66 ± 7.27 ng/mL
same,Concentration of TPH in plasma,[4]; incubation 240 min,362.66 ± 7.50 ng/mL
